The values below come from ChEMBL document CHEMBL5725860 (2018).

In this experiment the target is Neurotensin receptor type 1 (Homo sapiens, UniProt P30989). The experiment can be described thus: NTR1 Ca2+ Flux Dose Response: NTSR1 (NTR1) CHO cells are plated in 20 uL of assay media containing Ham's F12 supplemented with 10% fetal bovine serum and 0.4 mg/mL G418 at a concentration of 1.0×10^6 cells per mL into black, 384-well assay plates with clear bottoms using a Multidrop liquid handler. Assay plates are incubated at 37° C. in 5% CO2. The next day, the assay plates are aspirated to remove growth media and washed once with 20 uL of DPBS. The DPBS is then aspirated from the assay plate and replaced with 25 uL of Fluo-4 NW calcium dye prepared according to the manufacturer's recommendations then the plates are incubated for 1 hour at 37° C. Following the incubation in the presence of dye, the assay is run on a Molecular Devices FlexStation-III using 494 excitation and 516 emission wavelengths set to read for 90 seconds with the addition at 18 seconds of 5 uL of 6× final concentration of test compounds and peptide control diluted in assay media containing 0.1% BSA and no more than 9% DMSO to yield a maximum final DMSO concentration of 1.5%. […] EC50 values were calculated for those compounds tested in 8-point dose dependent response.
Chain of Neurotensin receptor type 1 (P30989 whole entry): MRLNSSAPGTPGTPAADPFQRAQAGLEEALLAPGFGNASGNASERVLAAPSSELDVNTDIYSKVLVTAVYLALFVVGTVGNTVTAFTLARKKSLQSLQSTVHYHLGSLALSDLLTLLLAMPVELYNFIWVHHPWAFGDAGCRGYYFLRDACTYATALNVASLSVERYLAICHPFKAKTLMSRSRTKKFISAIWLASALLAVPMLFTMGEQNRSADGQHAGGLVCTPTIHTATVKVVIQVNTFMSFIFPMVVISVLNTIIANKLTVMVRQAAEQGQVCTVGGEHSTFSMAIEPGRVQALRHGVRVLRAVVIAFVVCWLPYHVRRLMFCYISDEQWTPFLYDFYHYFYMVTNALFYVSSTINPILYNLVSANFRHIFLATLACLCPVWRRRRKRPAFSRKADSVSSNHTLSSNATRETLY

SMILES strings stand for the structures.

By EC50 is commonly meant the concentration needed to bring the measured effect to its halfway point. Regarding `COc1ccccc1C1CCN(c2nc(C3CC3)nc3c(N(C)CCO)cccc23)CC1`, the concentration for a half-maximal effect (EC50) is above 10 µM.

With `COc1ccccc1C1CCN(c2nc(C3CC3)nc3cc(F)c(N(C)CCO)cc23)CC1`, the EC50 was below 0.5 µM.

With `COc1cccc2c1CCN(c1nc(C3CC3)nc3ccc(N(C)CCO)cc13)C2`, the 50% effective concentration (EC50) was above 10 µM.

Take `COc1ccccc1C1CCN(c2nc(C3CC3)nc(C)c2CC(=O)N(C)CCO)CC1`: the EC50 is above 10 µM.
